Experimental data published in publication PMC7451656, “In vitro and in vivo growth inhibitory activities of cryptolepine hydrate against several Babesia species and Theileria equi” (PLoS Neglected Tropical Diseases, 2020).
Read-outs that look alike come from different tables or passages of the source.

Columns and labels:
[1] = tested on: B. bovis; assay: Growth inhibitory fluorescence assay in vitro, B. bovis; type: cell-based, Babesia bovis; conditions: for IC50: Babesia bovis, in Bos taurus, B. bovis in vitro culture, fluorescence assay, 96 h; for Selective index HFF: EC50 HFF / IC50 B. bovis; for Selective index MDBK: EC50 MDBK / IC50 B. bovis
Procedure: (§1) Texas strain of B. bovis and Argentina strain of B. bigemina were grown using bovine red blood cells (RBCs, collected from cattle farm of Obihiro University of Agriculture and Veterinary Medicine and stored at 4°C) in medium 199 (M199; Sigma-Aldrich, Tokyo, Japan) supplemented with 40% bovine serum, while RPMI 1640 medium (Sigma-Aldrich, Tokyo, Japan) was used for B. divergens (German strain) cultivation. The United States Department of Agriculture (USDA) strain of T. equi was grown in equine RBCs (collected from horse farm of Obihiro University of Agriculture and Veterinary Medicine and stored at 4°C) in M199 supplemented with 40% equine serum, and hypoxanthine (MP Biomedicals, Santa Ana, CA, USA) at a final concentration of 13.6 μg/ml was used as a vital supplement, while GIT medium was used for B. caballi (USDA strain) cultivation. Sixty μg/ml of streptomycin, 0.15 μg/ml of amphotericin B, and 60 U/ml of penicillin G (Sigma-Aldrich, Tokyo, Japan) were added to all media to prevent fungal and bacterial contamination. All parasite cultures were maintained for a long time in a microaerophilic stationary-phase culture system.
(§2) The inhibition assay was conducted according to the previously described protocol. Briefly, different concentrations of CRY, DA, CF, and AQ were added in triplicate in 96-well plates with 1% parasitemia and 2.5% HCT for B. bovis and B. bigemina and 5% HCT for B. divergens, B. caballi, and T. equi. The plates were incubated in a humidified incubator with 5% CO2, 5% O2, and 90% N2 for 96 h without changing the media. After 96 h, 100 μl of lysis buffer containing 2 × SG1 was directly added to each well and the plates were then wrapped in aluminum foil for protection from direct light and incubated for 6 h at room temperature. Afterward, the fluorescence was measured using a fluorescence spectrophotometer (Fluoroskan Ascent, Thermo Fisher Scientific, USA) at 485 nm excitation and 518 nm emission wavelengths. The relative fluorescence value was set to percentages after subtracting the mean values of the negative control. The experiment was repeated thrice.
(§3) The IC50 values of CRY, DA, CF, and AQ were determined using the nonlinear regression curve fit in GraphPad Prism (GraphPad Software Inc., San Diego, CA, USA). Combination index (CI) values for the drug combination were calculated using CompuSyn software, and the degree of synergism was determined as the weighted average of CI values using a formula [(1 x IC50) + (2 x IC75) + (3 x IC90) + (4 x IC95)]/10 [30]. The differences in parasitemia and hematology profiles in the B. microti–infected mice were analyzed using an independent Student’s t-test and one-way ANOVA test using GraphPad Prism version 5.0 for Windows (GraphPad Software Inc., San Diego, CA, USA). A P-value < 0.05 was considered statistically significant.

[2] = tested on: B. microti; assay: Chemotherapeutic effect against B. microti in mice (parasitemia); type: in vivo, Babesia microti; conditions: for day p.i. on which parasitemia was undetectable by microscopy / peak parasitemia level: BALB/c mice; for peak parasitemia level: 5 days, day 10
Procedure: Rodent B. microti (Munich strain) was recovered from -80°C stock and injected intraperitoneally (i.p.) in two 8-week-old female BALB/c mice purchased from CLEA Japan (Clea Japan, Tokyo, Japan). The mice were euthanized using an anesthesia system containing isoflurane after parasitemia reached approximately 30% and the blood was collected by cardiac puncture to conduct the in vivo studies.
The promising effect of CRY in vitro encouraged us to evaluate its in vivo effects against B. microti in mice. The assay was conducted in accordance with the previously described protocol. In two separate trials, 35 female 8-week-old BALB/c mice, housed under a pathogen-free environment with controlled humidity, temperature (22°C) and a 12 h light/ dark cycle were caged in seven groups, each group consisting of five mice. Six groups were i.p. injected with 0.5 ml of inoculum (1×10^7 B. microti iRBCs), while the seventh group was left uninfected and untreated to act as a negative control. When the average parasitemia in all infected mice reached approximately 1%, the 5-day drug treatment was initiated. The first and second groups were i.p. injected with 25 mg/kg body weight (BW) of DA and 5 mg/kg BW of CRY, respectively. The third group received 20 mg/kg BW of AQ orally, while the fourth and fifth groups were administered a combination of 2.5 mg/kg BW CRY + 12.5 mg/kg BW DA and 2.5 mg/kg BW CRY + 10 mg/kg AQ via a route similar to that of the single-drug treatment, respectively. The sixth group received 5% DMSO in physiological saline i.p. as a positive control. Parasitemia and hematology profiles (RBCs, hemoglobin (HGB), and HCT) were monitored every 2 and 4 days by microscopic examination and hematology analyzer (Celltac α MEK-6450, Nihon Kohden Corporation, Tokyo, Japan), respectively. On day 49, all mice were euthanized using an anesthesia system containing isoflurane and the blood was collected by cardiac puncture for PCR detection of the parasites.

[3] = tested on: B. bigemina; assay: Growth inhibitory fluorescence assay in vitro, B. bigemina; type: cell-based, Babesia bigemina; conditions: for Selective index HFF: EC50 HFF / IC50 B. bigemina; for Selective index MDBK: EC50 MDBK / IC50 B. bigemina; for Selective index NIH/3T3: EC50 NIH/3T3 / IC50 B. bigemina
Procedure: as §1, §2, §3

[4] = tested on: T. equi; assay: Growth inhibitory fluorescence assay in vitro, T. equi; type: cell-based, Theileria equi; conditions: for Selective index HFF: EC50 HFF / IC50 T. equi; for Selective index MDBK: EC50 MDBK / IC50 T. equi; for Selective index NIH/3T3: EC50 NIH/3T3 / IC50 T. equi; for IC50: Theileria equi, T. equi in vitro culture, fluorescence assay, 96 h
Procedure: as §1, §2, §3

[5] = tested on: B. divergens; assay: Growth inhibitory fluorescence assay in vitro, B. divergens; type: cell-based, Babesia divergens; conditions: for IC50: Babesia divergens; for Selective index HFF: EC50 HFF / IC50 B. divergens; for Selective index MDBK: EC50 MDBK / IC50 B. divergens; for Selective index NIH/3T3: EC50 NIH/3T3 / IC50 B. divergens
Procedure: as §1, §2, §3

[6] = B. divergens in vitro culture, fluorescence assay, 96 h, read-out: IC50

## O=C1C(O)=C([C@H]2CC[C@H](c3ccc(Cl)cc3)CC2)C(=O)c2ccccc21 [AQ, atovaquone]
[1]
  IC50: 39 ± 0.002 nM
  Selective index HFF: ˃ 2564.1
  Selective index MDBK: ˃ 2564.1
[1]; EC50 NIH/3T3 / IC50 B. bovis
  Selective index NIH/3T3: ˃ 2564.1
[2]; 20 mg/kg AQ oral
  day p.i. on which parasitemia was undetectable by microscopy: 18 days
  peak parasitemia level: 9%
[3]
  Selective index HFF: ˃ 142.7
  Selective index MDBK: ˃ 142.7
  Selective index NIH/3T3: ˃ 142.7
[4]
  Selective index HFF: ˃ 1052.6
  Selective index MDBK: ˃ 1052.6
  Selective index NIH/3T3: ˃ 1052.6
  IC50: 95 ± 0.065 nM
[5]; [6]
  IC50: 38 ± 0.002 nM
[5]
  Selective index HFF: ˃ 2631.6
  Selective index MDBK: ˃ 2631.6
  Selective index NIH/3T3: ˃ 2631.6

## Cn1c2c3ccccc3nc-2cc2ccccc21 [CRY, Cryptolepine hydrate]
[1]; B. bovis, t-test P = 0.005
  concentration at which in vitro growth was significantly inhibited: 0.15 µM
[1]
  IC50: 1740 ± 0.37 nM
  Selective index HFF: ˃ 57.5
  Selective index MDBK: 49.81
[2]; 5 mg/kg CRY i.p.
  day p.i. on which parasitemia was undetectable by microscopy: 28 days
[2]; 5 mg/kg CRY i.p., DMSO control 62.6% on day 8
  peak parasitemia level: 12.9%
[2]; CRY 5 mg/kg
  growth of B. microti in mice: effectively inhibited
[3]; B. bigemina, t-test P = 0.005
  concentration at which in vitro growth was significantly inhibited: 0.15 µM
[3]; Babesia bigemina, B. bigemina in vitro culture, fluorescence assay, 96 h
  IC50: 1400 ± 0.6 nM
[3]
  Selective index HFF: ˃ 71.4
  Selective index MDBK: 61.91
  Selective index NIH/3T3: 68.07
[4]
  Selective index HFF: ˃ 136.9
  Selective index MDBK: 118.73
  Selective index NIH/3T3: 130.54
  IC50: 730 ± 0.025 nM
[4]; T. equi, t-test P = 0.02
  concentration at which in vitro growth was significantly inhibited: 0.078 µM
[5]; B. divergens, t-test P = 0.003
  concentration at which in vitro growth was significantly inhibited: 0.078 µM
[5]; [6]
  IC50: 790 ± 0.32 nM
[5]; B. divergens, fluorescence assay after 96 h, three trials, read-out: IC50 (Fig 1)
  IC50: 788 ± 320 nM
[5]
  Selective index HFF: ˃ 126.9
  Selective index MDBK: 109.71
  Selective index NIH/3T3: 120.62
